The text below walks through data of ChEMBL document CHEMBL1158992, “Application of two-dimensional nmr spectroscopy in the structural determination of marine natural products. Isolation and total structural assignment of 4-deoxyasbestinin diterpenes from the Caribbean gorgonian Briareum asbestinum” (J Nat Prod, 1991).

In brackets after ≈: the same amount, converted by molar mass. Activity calls are given as the source filed them. No cut-off for these calls is given here.

In data set [1] the test system is Klebsiella pneumoniae. The data set is described as follows: Antimicrobial activity against Klebsiella pneumoniae. The data set is classed as functional, organism-based.
A short description of data set [2]: Cytotoxicity against CHOK1 cells. Type of data set: cell-based, Cricetulus griseus. The note with it: chinese hamster, CHO-K1 cells; read-out: ED50 (the source's name).
Data set [3] concerns Human immunodeficiency virus. The experiment in a line: Antiviral activity against HIV. The data set is classed as functional, organism-based.

Take `CCCC(=O)O[C@H]1[C@@H]2[C@@H]3[C@@H](C[C@H]1C)[C@@H](C)CO[C@@]1(C)CC/C=C(/C)C[C@@H]2O[C@@H]31`: in data set [1], the outcome was Active. The CC50 in data set [2] came out at 3.55 µg/mL (≈ 9.09 µM).
For `CC(=O)O[C@H]1[C@@H]2[C@@H]3[C@@H](C[C@H]1C)[C@@H](C)CO[C@@]1(C)CC/C=C(/C)C[C@@H]2O[C@@H]31`, in that order: “Active” and 4.82 µg/mL (≈ 13.3 µM).
For `CCCC(=O)O[C@H]1[C@@H]2[C@@H]3[C@@H](C[C@H]1C)[C@@H](C)CO[C@@]1(C)CC/C=C(\C)C[C@@H]2O[C@@H]31` [4-DEOXYASBESTININ A], in that order: “Active” and 3.35 µg/mL (≈ 8.58 µM).
With `CC(=O)O[C@H]1[C@@H]2[C@@H]3[C@@H](C[C@H]1C)[C@@H](C)CO[C@@]1(C)CC/C=C(\C)C[C@@H]2O[C@@H]31` [11-ACETOXY-4-DEOXYASBESTININ B], the result in data set [1] was Active. For the same compound, the CC50 in data set [2] is 2.5 µg/mL (≈ 6.9 µM). In addition, the result in data set [3] was inactive.
